Where two headings read alike, the source gives them in different places.
What was measured:
pfDHODH = pfDHODH (Plasmodium falciparum (isolate 3D7), UniProt Q08210); test: DHODH chromogen reduction (DCIP) assay, pfDHODH; assay type: biochemical, P. falciparum
Description: (§1) Type 2 DHODH activity was monitored with either the direct assay measuring the formation of orotate or via a chromogen reduction assay using DCIP. Although the extinction coefficient and absorption wavelength are preferable for the chromogen reduction assay, the inorganic electron acceptor DCIP can be utilized by DHODH as the final electron acceptor in lieu of CoQn when the endogenous substrate is at a low concentration. As such, the direct assay was used to measure the binding affinity of pfDHODH to CoQD and L-DHO. The enzymatic reaction was performed by varying the L-DHO concentration (1-400 μM) or CoQD concentration (1-200 μM) while keeping the other substrate constant and in excess.
(§2) Substrate specificity and enzyme inhibition data was analyzed with GraphPad Prism Version 4 for Windows (GraphPad Software). Kinetic constants were calculated by non-linear regression fitting of the data to the Michaelis-Menten equation [36]. IC50 values were determined by non-linear regression fitting of the data to Equation 1: […]

hsDHODH = hsDHODH (Homo sapiens (Human), UniProt Q02127); test: DCIP assay, hsDHODH; assay type: biochemical; settings: Table 2b; read-out: Hu (human DHODH) IC50
Sequence of hsDHODH (Q02127 29-395 limits assumed): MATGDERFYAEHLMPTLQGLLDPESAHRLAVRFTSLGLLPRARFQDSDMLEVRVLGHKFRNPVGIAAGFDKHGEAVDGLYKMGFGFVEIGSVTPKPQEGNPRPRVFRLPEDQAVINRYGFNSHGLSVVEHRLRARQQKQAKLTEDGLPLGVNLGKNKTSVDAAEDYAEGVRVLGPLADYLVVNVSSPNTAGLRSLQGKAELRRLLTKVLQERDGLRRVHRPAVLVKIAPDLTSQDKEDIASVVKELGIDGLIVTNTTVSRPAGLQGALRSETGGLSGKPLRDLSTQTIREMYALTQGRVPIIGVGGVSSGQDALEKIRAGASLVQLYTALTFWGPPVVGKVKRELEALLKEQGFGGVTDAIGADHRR
Description: as §1, with “excess. The formation of orotate was measured continuously at 296 nm (ε296=4.3 mM^−1 cm^−1). Inhibition of DHODH by small molecules was evaluated using the chromogen based assay with a final substrate concentration of 200 μM L-DHO, 18 μM CoQD, and 100 μM DCIP, unless otherwise noted. The reduction of DCIP was monitored at 600 nm (ε600=18.8 mM^−1 cm^−1).” for “excess.”
as §2

P. falciparum 3D7 = test: Inhibition of in vitro P. falciparum culture, [3H]-hypoxanthine uptake, 3D7; assay type: cell-based
Description: (§3) P. falciparum strains D10, 3D7, HB3, and Dd2 were obtained from the Malaria Research and Reference Reagent Resource Center (Manassas, Va.). The parasite strains were maintained in vitro by method of Trager and Jensen. The inhibition of P. falciparum growth in the presence of drug was assessed by the relative reduction of [^3H]-hypoxanthine uptake as previously described. Inhibition data were fitted to Equation 1 using non-linear regression analysis except that the relative velocity of parasite growth was substituted for the rate of product formation.

P. falciparum Dd2 = test: Inhibition of in vitro P. falciparum culture, [3H]-hypoxanthine uptake, Dd2; assay type: cell-based
Description: as §3

P. falciparum HB3 = test: Inhibition of in vitro P. falciparum culture, [3H]-hypoxanthine uptake, HB3; assay type: cell-based; settings: Plasmodium falciparum, HB3, Erythrocyte, read-out: HB3 IC50
Description: as §3

P. falciparum D10 = test: Inhibition of in vitro P. falciparum culture, [3H]-hypoxanthine uptake, D10; assay type: cell-based; settings: Plasmodium falciparum, D10, Erythrocyte, read-out: D10 IC50
Description: as §3

[1] = system: P. falciparum D10-scDHODH; test: Inhibition of transgenic D10-scDHODH parasites, [3H]-hypoxanthine uptake; assay type: cell-based
Description: as §3
Transgenic parasites expressing scDHODH were generated as described by Painter et al. except that full length scDHODH was cloned directly into the pGem3Z vector without a GFP tag. The resultant plasmid was transfected into ring stages of P. falciparum D10 by electroporation and maintained in culture using standard methods under the selection of WR99210.

[2] = Table 2b, read-out: pfDHODH IC50
[3] = Plasmodium falciparum, 3D7, Table 2b, read-out: 3D7 EC50
[4] = Plasmodium falciparum, DD2, Table 2b, read-out: Dd2 EC50

Sequence of pfDHODH (Q08210 159-565 limits assumed): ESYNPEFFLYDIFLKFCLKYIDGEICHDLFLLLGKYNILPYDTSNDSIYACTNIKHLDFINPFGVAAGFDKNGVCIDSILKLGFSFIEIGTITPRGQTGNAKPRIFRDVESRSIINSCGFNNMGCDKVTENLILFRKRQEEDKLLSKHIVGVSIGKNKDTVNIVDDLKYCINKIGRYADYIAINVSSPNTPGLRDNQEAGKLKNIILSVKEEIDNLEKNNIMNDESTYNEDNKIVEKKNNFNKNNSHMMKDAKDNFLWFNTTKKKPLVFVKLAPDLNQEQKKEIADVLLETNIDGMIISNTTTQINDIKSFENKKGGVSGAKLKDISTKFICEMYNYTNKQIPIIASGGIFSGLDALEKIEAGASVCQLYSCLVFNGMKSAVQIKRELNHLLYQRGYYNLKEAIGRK

Compound	IC50 (pfDHODH; [2])	IC50 (hsDHODH)	EC50 (P. falciparum 3D7; [3])	EC50 (P. falciparum Dd2; [4])	other results
CCc1nc2cc(F)ccc2n1-c1ccc(C(=O)NC2CC2)s1 [Compound 66]	67 nM	> 30000 nM	136 nM	253 nM	–
O=C(NC1CC1)c1ccc(-n2cnc3cc(F)ccc32)s1 [Compound 70]	58 nM	> 30000 nM	62 nM	105 nM	–
Cc1nc2cc(Cl)ccc2n1-c1ccc(C(=O)NC2CC2)s1 [Compound 40]	–	> 30000 nM	–	–	IC50 (pfDHODH; pfDHODH IC50, Table 2b): 58 nM; EC50 (P. falciparum 3D7; Plasmodium falciparum, 3D7, read-out: 3D7 EC50, Table 2b): 88 nM; EC50 (P. falciparum Dd2; Plasmodium falciparum, DD2, read-out: Dd2 EC50, Table 2b): 120 nM
CC(C)NC(=O)c1ccc(-n2cnc3ccccc32)s1 [Compound 36]	684 nM	> 30000 nM	579 nM	812 nM	–
O=C(NC1CCCC1)c1ccc(-n2cnc3ccccc32)s1 [Compound 35]	2510 nM	> 30000 nM	4400 nM	5500 nM	–
CCNC(=O)c1ccc(-n2cnc3cc(C)ccc32)s1 [Compound 61]	75 nM	21200 nM	27 nM	39 nM	–
O=C(NCCO)c1ccc(-n2cnc3ccccc32)s1 [Compound 30]	14000 nM	> 30000 nM	5900 nM	6500 nM	–
CCCc1nc2ccccc2n1-c1ccc(C(=O)NCC)s1 [Compound 59]	334 nM	19400 nM	382 nM	467 nM	–
CCCNC(=O)c1ccc(-n2c(C)nc3cc(F)ccc32)s1 [Compound 50]	499 nM	> 30000 nM	255 nM	538 nM	–
CCc1nc2ccccc2n1-c1ccc(C(=O)NC2CC2)s1 [Compound 49]	113 nM	> 30000 nM	125 nM	185 nM	–
CCN(CC)CCCC(C)Nc1ccnc2cc(Cl)ccc12 (stereo not drawn) [Chloroquine, reference compound]	–	–	–	–	IC50 (P. falciparum 3D7; Plasmodium falciparum, 3D7, Erythrocyte, read-out: 3D7 IC50): 10 nM; IC50 (P. falciparum Dd2; Plasmodium falciparum, DD2, Erythrocyte, read-out: Dd2 IC50): 180 nM; IC50 (P. falciparum HB3): 8 nM; IC50 (P. falciparum D10): 15 nM; IC50 ([1]; Plasmodium falciparum, D10, read-out: D10-scDHODH IC50): 13 nM; efficacy against D10-scDHODH strain compared to D10 parent strain ([1]; dose-effect curves, FIG. 5): equally sensitive
CCCNC(=O)c1ccc(-n2cnc3cc(Cl)ccc32)s1 [Compound 56]	324 nM	> 30000 nM	203 nM	–	–
CCNC(=O)c1ccc(-n2c(CC)nc3ccccc32)s1 [Compound 63]	137 nM	> 30000 nM	141 nM	146 nM	–
CCNC(=O)c1ccc(-n2c(C)nc3cc(F)ccc32)s1 [Compound 53]	164 nM	> 30000 nM	66 nM	106 nM	–
Cc1nc2ccccc2n1-c1ccc(C(=O)NC2CC2)s1 [Compound 31]	99 nM	> 30000 nM	66 nM	106 nM	–
CCCCC(=O)c1ccc(-n2cnc3ccccc32)s1 [Compound 84, 1-[5-(1H-benzimidazol-1-yl)-2-thienyl]pentan-1-one]	> 30000 nM	> 30000 nM	> 40000 nM	20000 nM	–
COc1ccc2c(c1)nc(C)n2-c1ccc(C(=O)NC2CC2)s1 [Compound 39]	212 nM	24600 nM	180 nM	247 nM	–
Cc1nc2ccccc2n1-c1ccc(C(=O)NC2CC2)s1 [Compound 32]	74 nM	> 30000 nM	–	–	EC50 (P. falciparum 3D7; Table 2b, read-out: 3D7 EC50): 105 nM; EC50 (P. falciparum Dd2; Table 2b, read-out: Dd2 EC50): 114 nM
CCCNC(=O)c1ccc(-n2c(C)nc3cc(Cl)ccc32)s1 [Compound 51]	239 nM	> 30000 nM	158 nM	314 nM	–
CCNC(=O)c1ccc(-n2cnc3cc(F)ccc32)s1 [Compound 68]	105 nM	> 30000 nM	90 nM	132 nM	–
CCNC(=O)c1ccc(-n2c(C)nc3cc(Cl)ccc32)s1 [Compound 52]	94 nM	> 30000 nM	53 nM	104 nM	–

Compound	IC50 (pfDHODH; [2])	IC50 (hsDHODH)	EC50 (P. falciparum 3D7; [3])	EC50 (P. falciparum Dd2; [4])	other results
CCNC(=O)c1ccc(-n2cc(-c3ccccc3)nc2C)s1 [Compound 75]	416 nM	> 30000 nM	278 nM	283 nM	–
Cc1nc2cc(OC(F)(F)F)ccc2n1-c1ccc(C(=O)NC2CC2)s1 [Compound 57]	64 nM	> 30000 nM	33 nM	60 nM	–
Cc1nc2cc(F)ccc2n1-c1ccc(C(=O)NC2CC2)s1 [Compound 43]	104 nM	20300 nM	–	–	EC50 (P. falciparum 3D7; Table 2b, read-out: 3D7 EC50): 39 nM; EC50 (P. falciparum Dd2; Table 2b, read-out: Dd2 EC50): 36 nM
CCNC(=O)c1ccc(-n2cnc3ccccc32)s1 [Compound 25]	145 nM	> 30000 nM	102 nM	154 nM	–
CCCc1nc2ccccc2n1-c1ccc(C(=O)NC2CC2)s1 [Compound 67]	180 nM	25600 nM	389 nM	629 nM	–
Cc1nc2cc(F)ccc2n1-c1ccc(C(=O)NC2CC2)s1 [Compound 42]	88 nM	> 30000 nM	–	–	EC50 (P. falciparum 3D7; Table 2b, read-out: 3D7 EC50): 104 nM; EC50 (P. falciparum Dd2; Table 2b, read-out: Dd2 EC50): 150 nM
Cc1nc2cc3c(cc2n1-c1ccc(C(=O)NC2CC2)s1)OCO3 [Compound 90]	116 nM	> 30000 nM	220 nM	174 nM	–
CCNC(=O)c1ccc(-n2c(C)nc3ccccc32)s1 [Compound 33]	191 nM	> 30000 nM	–	–	EC50 (P. falciparum 3D7; Table 2b, read-out: 3D7 EC50): 113 nM; EC50 (P. falciparum Dd2; Table 2b, read-out: Dd2 EC50): 223 nM
Cc1ccc2c(c1)ncn2-c1ccc(C(=O)NC2CC2)s1 [Compound 60]	38 nM	24600 nM	20 nM	21 nM	–
Cc1nc(-c2ccccc2)cn1-c1ccc(C(=O)NC2CC2)s1 [Compound 74]	220 nM	> 30000 nM	124 nM	206 nM	–
O=C(NC1CCC1)c1ccc(-n2cnc3ccccc32)s1 [Compound 38]	418 nM	> 30000 nM	408 nM	442 nM	–
Cc1nc2cc(C(F)(F)F)ccc2n1-c1ccc(C(=O)NC2CC2)s1 [Compound 64]	41 nM	28000 nM	8 nM	12 nM	–
Cc1nc(-c2ccc(F)cc2)cn1-c1ccc(C(=O)NC2CC2)s1 [Compound 76]	240 nM	> 30000 nM	226 nM	217 nM	–
O=C(NC1CC1)c1ccc(-n2cnc3ccccc32)s1 [Compound 23]	56 nM	> 30000 nM	79 nM	88 nM	–
Cc1ccc2c(c1)nc(C)n2-c1ccc(C(=O)NC2CC2)s1 [Compound 44]	56 nM	> 30000 nM	34 nM	48 nM	–
CCNC(=O)c1ccc(-n2c(CC)nc3cc(F)ccc32)s1 [Compound 69]	178 nM	> 30000 nM	226 nM	361 nM	–
Cc1cccc2c1nc(C)n2-c1ccc(C(=O)NC2CC2)s1 [Compound 65]	42 nM	> 30000 nM	9 nM	13 nM	–
Cc1nc2ccc(OC(F)(F)F)cc2n1-c1ccc(C(=O)NC2CC2)s1 [Compound 58]	36 nM	> 30000 nM	9 nM	16 nM	–
CNC(=O)c1ccc(-n2cnc3ccccc32)s1 [Compound 24]	1080 nM	> 30000 nM	276 nM	422 nM	–
CCNC(=O)c1ccc(-n2c(C)nc3cc(C)ccc32)s1 [Compound 62]	112 nM	> 30000 nM	89 nM	87 nM	–
